Results on 24 compounds are retold here after patent publication US20260209180A1, “PROTEASE INHIBITORS FOR TREATING OR PREVENTING CORONAVIRUS INFECTION” (Merck Sharp & Dohme LLC, priority 2023, published 2026).

The assay addresses SARS2 coronavirus 3CL protease (Severe acute respiratory syndrome coronavirus 2, UniProt P0DTD1). Nature of the assay: SARS2 Coronavirus 3CL Protease Assay (FRET). The format is biochemical. The conditions noted are these: 5 nM protease pre-incubated with compound 30 minutes; 15 uM peptide substrate; 4 h room temperature; read-out: FRET Potency (nM); IC50 values in the SARS2 3CLPro FRET assay. The method, then:
The enzymatic activity of SARS2 coronavirus 3CL protease was determined in a FRET (fluorescence resonance energy transfer)-based assay measuring the cleavage of a peptide substrate by recombinantly expressed and purified enzyme. Cleavage of the peptide SEQ ID NO: 1 (CPC Scientific) by SARS2 3CL protease was measured in reaction buffer (50 mM Hepes pH 7.5, 0.01% Triton X-100, 0.01% BSA, 2 mM DTT). […] Room temperature reactions (4 h) were quenched by addition of a high dose of inhibitor and read on an appropriate plate reader (excitation wavelength=495 nm, emission wavelength=520 nm). Data were analyzed by a standard 4 parameter fit to determine IC50 values.
For `CNC(=O)C(=O)[C@H](CCC(C)F)NC(=O)c1cc(Cl)ccc1NC(=O)OC` (single isomer, unassigned) [Example 6A], the IC50 was found to be 25.8 nM. Under `CNC(=O)C(=O)[C@H](CCC(C)F)NC(=O)c1cc(Cl)ccc1NC(=O)OC` (single isomer, unassigned) [Example 6B] stands 154 nM; under `CNC(=O)C(=O)[C@H](CCC(C)F)NC(=O)c1cc(Cl)ccc1NC(=O)OC` (single isomer, unassigned) [Example 6C], 13.6 nM. Take `CNC(=O)C(=O)[C@H](CCC(C)F)NC(=O)c1cc(Cl)ccc1NC(=O)OC` (single isomer, unassigned) [Example 6D]: the IC50 stood at 702 nM. Under `CNC(=O)C(=O)[C@H](CCC(C)(F)F)NC(=O)c1cc(Cl)ccc1NC(=O)C1CC12CC2` (single isomer, unassigned) [Example 19] stands 10.5 nM; under `CNC(=O)C(=O)[C@H](CCC(C)(F)F)NC(=O)c1cc(Cl)ccc1NC(=O)C1CC12CC2` (single isomer, unassigned) [Example 33], 21.5 nM. Under `CNC(=O)C(=O)[C@H](CCC(C)(F)F)NC(=O)c1cc(Cl)ccc1NC(=O)c1ccnc(C(F)(F)F)c1` [Example 1, (S)—N-(4-chloro-2-((6,6-difluoro-1-(methylamino)-1,2-dioxoheptan-3-yl)carbamoyl)phenyl)-2-(trifluoromethyl)isonicotinamide] stands 8.1 nM; under `CNC(=O)C(=O)[C@H](CCC(C)(F)F)NC(=O)c1cc(Cl)cnc1NC(=O)C12CC(C(F)(F)F)(C1)C2` [Example 2, (S)-5-chloro-N-(6,6-difluoro-1-(methylamino)-1,2-dioxoheptan-3-yl)-2-(3-(trifluoromethyl)bicyclo[1.1.1]pentane-1-carboxamido)nicotinamide], 11.6 nM. In the case of `COC(=O)N[C@H](C(=O)Nc1ccc(Cl)cc1C(=O)N[C@@H](CCC(C)(F)F)C(=O)C(=O)NC1CC1)C(C)(C)C` [Example 3, Methyl ((S)-1-((4-chloro-2-(((S)-1-(cyclopropylamino)-6,6-difluoro-1,2-dioxoheptan-3-yl)carbamoyl)phenyl)amino)-3,3-dimethyl-1-oxobutan-2-yl)carbamate], the IC50 worked out at 24 nM. Consider `CNC(=O)C(=O)[C@H](CCC(C)(F)F)NC(=O)c1cc(Cl)c(F)cc1NC(=O)CCC(F)(F)F` [Example 4, (S)-5-chloro-N-(6,6-difluoro-1-(methylamino)-1,2-dioxoheptan-3-yl)-4-fluoro-2-(4,4,4-trifluorobutanamido)benzamide], for which the IC50 is 9.9 nM. For the compound `CC(F)(F)CC[C@H](NC(=O)c1cc(Cl)cnc1NC(=O)c1cccc(C(F)(F)F)c1)C(=O)C(=O)NC1CC1` [Example 5, (S)-5-chloro-N-(1-(cyclopropylamino)-6,6-difluoro-1,2-dioxoheptan-3-yl)-2-(3-(trifluoromethyl)benzamido)nicotinamide], the IC50 is 9.2 nM. The same measure for `CC(F)(F)CC[C@H](NC(=O)c1cc(Cl)ccc1NC(=O)c1ccnc(C(F)(F)F)c1)C(=O)C(N)=O` [Example 7, (S)—N-(2-((1-amino-6,6-difluoro-1_2-dioxoheptan-3-yl)carbamoyl)-4-chlorophenyl)-2-(trifluoromethyl)isonicotinamide]: 18 nM; for `CNC(=O)C(=O)[C@H](CCC(C)(F)F)NC(=O)c1cc(Cl)ccc1NC(=O)C(C)c1cscn1` (stereo partly drawn) [Example 8, 5-chloro-N-[(1S)-4,4-difluoro-1-[2-(methylamino)-2-oxo-acetyl]pentyl]-2-(2-thiazol-4-ylpropanoylamino)benzamide]: 6.6 nM; for `CNC(=O)C(=O)[C@H](CCC(C)(F)F)NC(=O)c1cc(Cl)ccc1NC(=O)C1CCc2scnc21` (stereo partly drawn) [Example 9, N-[4-chloro-2-[[(1S)-4,4-difluoro-1-[2-(methylamino)-2-oxo-acetyl]pentyl]carbamoyl]phenyl]-5,6-dihydro-4H-cyclopenta[d]thiazole-4-carboxamide]: 7 nM. In the case of `CNC(=O)C(=O)[C@H](CCC(C)(F)F)NC(=O)c1cc(Cl)ccc1NC(=O)C(C)c1cscn1` (stereo partly drawn) [Example 10, 5-chloro-N-[(1S)-4,4-difluoro-1-[2-(methylamino)-2-oxo-acetyl]pentyl]-2-(2-thiazol-4-ylpropanoylamino)benzamide], the IC50 stood at 7 nM. For `CNC(=O)C(=O)[C@H](CCC(C)(F)F)NC(=O)c1cc(Cl)ccc1NC(=O)C1CC12CCOCC2` (stereo partly drawn) [Example 11, N-[4-chloro-2-[[(1S)-4,4-difluoro-1-[2-(methylamino)-2-oxo-acetyl]pentyl]carbamoyl]phenyl]-6-oxaspiro[2.5]octane-2-carboxamide], the IC50 amounted to 7.7 nM. For the compound `CC(F)(F)CC[C@H](NC(=O)c1cc(Cl)ccc1NC(=O)c1cccc(C(F)(F)F)c1)C(=O)C(=O)NC1CC1` [Example 12, 5-chloro-N-[(1S)-1-[2-(cyclopropylamino)-2-oxo-acetyl]-4.4-difluoro-pentyl]-2-[[3-(trifluoromethyl)benzoyl]amino]benzamide], the IC50 was 7.9 nM. Under `CNC(=O)C(=O)[C@H](CCC(C)(F)F)NC(=O)c1cc(Cl)ccc1NC(=O)C1CC(F)(F)C1` [Example 13, 5-chloro-2-[(3,3-difluorocyclobutanecarbonyl)amino]-N-[(1S)-4,4-difluoro-1-[2-(methylamino)-2-oxo-acetyl]pentyl]benzamide] stands 8 nM; under `CNC(=O)C(=O)[C@H](CCC(C)(F)F)NC(=O)c1cc(Cl)ccc1NC(=O)CCC(F)(F)F` [Example 14, 5-chloro-N-[(1S)-4,4-difluoro-1-[2-(methylamino)-2-oxo-acetyl]pentyl]-2-(4,4,4-trifluorobutanoylamino) benzamide], 8.2 nM. As for `CNC(=O)C(=O)[C@H](CCC(C)(F)F)NC(=O)c1cc(Cl)ccc1NC(=O)C1CCc2scnc21` (stereo partly drawn) [Example 15, N-[4-chloro-2-[[(1S)-4,4-difluoro-1-[2-(methylamino)-2-oxo-acetyl]pentyl]carbamoyl]phenyl]-5,6-dihydro-4H-cyclopenta[d]thiazole-4-carboxamide], the IC50 turned out to be 8.4 nM.

Regarding `CNC(=O)C(=O)[C@H](CCC(C)(F)F)NC(=O)c1cc(Cl)ccc1NC(=O)C1CCOCC1` [Example 16, N-[4-chloro-2-[[(1S)-4,4-difluoro-1-[2-(methylamino)-2-oxo-acetyl]pentyl]carbamoyl]phenyl] tetrahydropyran-4-carboxamide], the IC50 is 8.5 nM.

For the compound `CNC(=O)C(=O)[C@H](CCC(C)(F)F)NC(=O)c1cc(Cl)ccc1NC(=O)c1cccc(C(F)(F)F)n1` [Example 17, N-[4-chloro-2-[[(1S)-4,4-difluoro-1-[2-(methylamino)-2-oxo-acetyl]pentyl]carbamoyl]phenyl]-6-(trifluoromethyl)pyridine-2-carboxamide], the IC50 was 8.7 nM.

With `CNC(=O)C(=O)[C@H](CCC(C)(F)F)NC(=O)c1cc(F)cnc1NC(=O)c1cccc(C(F)(F)F)c1` [Example 18, N-[(1S)-4,4-difluoro-1-[2-(methylamino)-2-oxo-acetyl]pentyl]-5-fluoro-2-[[3-(trifluoromethyl)benzoyl]amino]pyridine-3-carboxamide], the IC50 turned out to be 9.8 nM. Under `CNC(=O)C(=O)[C@H](CCC(C)(F)F)NC(=O)c1cc(Cl)ccc1NC(=O)C1(C(F)(F)F)CC1` [Example 20, 5-chloro-N-[(1S)-4,4-difluoro-1-[2-(methylamino)-2-oxo-acetyl]pentyl]-2-[[1-(trifluoromethyl)cyclopropane-carbonyl]amino]benzamide] stands 11.6 nM.
